Test results as given in publication PMC10714400, “Antimicrobial Peptide–Peptoid Hybrids with and without Membrane Disruption” (ACS Infectious Diseases, 2023).
Where a SMILES comes first, the peptide text is derived from it. [ ]: non-standard residue; d: D form. Nleu = CC(C)CNCC(=O)O; Nlys = NCCCCNCC(=O)O

Key:
Type in all cases: cell-based, Pseudomonas aeruginosa
[1] = tested on: P. aeruginosa PAO1; assay: DiSC3(5) inner membrane depolarization assay; details: P. aeruginosa PAO1, 2 μM DiSC3(5)
Experimental: Figure 5 Interactions of peptide–peptoid hybrids with bacterial outer and inner membranes of P. aeruginosa. (a, b) NPN outer membrane permeability assay. P. aeruginosa PAO1 bacteria were treated with increasing compound concentrations in the presence of 10 μM NPN. The fluorescence intensity (λex = 340 nm, λem = 415 nm) was measured within 5 min. Data represent the mean ± SD, n = 3. (c, d) DiSC3(5) inner membrane depolarization assay. P. aeruginosa PAO1 cells were treated with increasing compound concentrations in the presence of 2 μM DiSC3(5). The fluorescence intensity (λex = 610 nm, λem = 660 nm) was measured within 5 min after treatment, and the data represent mean ± SD, n = 3.
A single colony of P. aeruginosa PAO1 and E. coli W3110 was grown overnight with shaking (150 rpm) in LB broth (5 mL) at 37 °C. A 100 μL portion of the overnight culture was regrown in 10 mL of LB broth with shaking (200 rpm) to the exponential phase (OD600 = 1, corresponding to 10^9 CFU/mL). Bacteria were washed once with HEPES buffer (5 mM HEPES, 5 mM glucose, pH 7.4) and diluted to an OD600 = 0.5. Stock solution of 10 mM of 3,3′-dipropylthiadicarbocyanine iodide (DiSC3(5), purchased from Sigma) was prepared in DMSO. Stock solutions of 2 mg/mL of the compounds were prepared in sterilized milli-Q water and diluted to the beginning concentration of 128 μg/mL in 200 μL of HEPES buffer containing 4 μM of the fluorescent probe DiSC3(5). The diluted samples were added to the first well of 96-well plates (black wells, flat bottom, BRAND GmbH Wertheim, Germany) and diluted serially by 1/2. 100 μL of the bacterial suspension in HEPES buffer (without fluorophore) was added to each well. In this case, the final OD of bacteria was 0.25, the final concentration of peptide in the first column was 64 μg/mL, and DiSC3(5) was 2 μM. The control wells are buffer containing DiSC3(5) and bacterial suspension containing DiSC3(5) in HEPES buffer. The plate was measured with a Tecan instrument Infinite M1000 within 5 min. […] The assay was measured in triplicate and repeated at least two times.[65],[75]

[2] = tested on: P. aeruginosa PAO1; assay: Bacterial count after treatment, before TEM sample preparation; details: P. aeruginosa PAO1, […] MH pH 8.5, 10x MIC
Experimental: (§1) Just before the samples were further prepared for the microscopy, surviving bacteria were quantified by plating 10-fold dilutions of samples in sterilized normal saline (NaCl 0.9%) on LB agar plates. […] The assay was performed in triplicate. Each bacteria sample was centrifuged at 12,000 rpm for 3 min, and the supernatant was discarded. The samples were then further processed and imaged using our previously described protocol.[64]
8. Transmission electron microscopy (TEM)
Table S4: Bacterial counts, 2 hours after treatment, before TEM sample preparation. Data represents triplicates.
Bacteria count after treatment at 10x MIC and 2 h of incubation at 37 °C
Control (non-treated cells) 1 × 10^8 CFU (100)

[3] = tested on: P. aeruginosa PAO1; assay: Transmission electron microscopy (TEM); details: P. aeruginosa PAO1, 10 × MIC, […] MH at pH 8.5, 2 h at 37 °C
Experimental: Scale bars are 500 nm and 1 μm. Red arrows: membrane perturbations. Blue arrows: intracellular aggregation. Yellow arrows: empty area within the cell.
as §1

Compound | Inner membrane depolarization (DiSC3(5)) [1] | Bacteria count after treatment at 10x MIC and 2 h of incubation at 37 °C (% of control) [2] | TEM micrographs, changes in treated bacteria [3]
CC(C)C[C@H](NC(=O)[C@H](CC(C)C)NC(=O)[C@H](CC(C)C)NC(=O)[C@H](CCCCN)NC(=O)[C@H](CC(C)C)NC(=O)[C@H](CC(C)C)NC(=O)CN(CCCCN)C(=O)[C@H](CC(C)C)NC(=O)[C@H](CC(C)C)NC(=O)CN(CCCCN)C(=O)CNCCCCN)C(N)=O [EB6, kkLLkLLKLLL] (H-[Nlys][Nlys]LL[Nlys]LLKLLL-NH2) | strongly depolarized the inner membrane |  | 
CC(C)CN(CC(N)=O)C(=O)CN(CC(C)C)C(=O)CN(CC(C)C)C(=O)CN(CCCCN)C(=O)CN(CC(C)C)C(=O)CN(CC(C)C)C(=O)CN(CCCCN)C(=O)CN(CC(C)C)C(=O)CN(CC(C)C)C(=O)CN(CCCCN)C(=O)CNCCCCN [EB11, kkllkllklll] (H-[Nlys][Nlys][Nleu][Nleu][Nlys][Nleu][Nleu][Nlys][Nleu][Nleu][Nleu]-NH2) | partly depolarized the inner membrane |  | 
CC(C)C[C@H](NC(=O)CN(CC(C)C)C(=O)[C@H](CC(C)C)NC(=O)CN(CCCCN)C(=O)[C@H](CC(C)C)NC(=O)CN(CC(C)C)C(=O)[C@H](CCCCN)NC(=O)CN(CC(C)C)C(=O)[C@H](CC(C)C)NC(=O)CN(CCCCN)C(=O)[C@@H](N)CCCCN)C(N)=O [EB9, KkLlKlLkLlL] (H-K[Nlys]L[Nleu]K[Nleu]L[Nlys]L[Nleu]L-NH2) | partly depolarized the inner membrane | 0.01 % of control | aggregation of intracellular components as the major effect
H-KKLLKLLKLLL-NH2 [ln65, reference compound] |  | 0.01 % of control | strong membrane-disruptive activity
